In general, inhibition refers to the percentage by which the read-out fell short of the control. By pKb is commonly meant the Kb on a negative log10 scale, so that one unit is a factor of ten.

Each structure is given as a SMILES string.

Data set [1] concerns the target T1, Proteinase-activated receptor 1 (Homo sapiens) (UniProt P25116).
T1 sequence (whole entry): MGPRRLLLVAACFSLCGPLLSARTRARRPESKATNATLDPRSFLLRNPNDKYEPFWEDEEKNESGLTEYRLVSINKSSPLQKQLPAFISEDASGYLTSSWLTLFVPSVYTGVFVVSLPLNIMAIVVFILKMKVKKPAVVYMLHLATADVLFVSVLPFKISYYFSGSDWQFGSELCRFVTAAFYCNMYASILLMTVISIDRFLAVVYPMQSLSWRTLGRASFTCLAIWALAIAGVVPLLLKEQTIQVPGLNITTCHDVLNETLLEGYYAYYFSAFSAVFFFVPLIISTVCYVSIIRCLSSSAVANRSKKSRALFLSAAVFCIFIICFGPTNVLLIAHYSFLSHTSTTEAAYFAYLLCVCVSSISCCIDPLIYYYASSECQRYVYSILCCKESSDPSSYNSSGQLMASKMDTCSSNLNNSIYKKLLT
As to the kind of experiment: Antagonist activity at PAR1 expressed in CHO cells assessed as inhibition of SFLLR-induced intracellular calcium release at 10 uM. Type of data set: functional, cell-based. On the technique in general: Calcium flux is commonly read through the fluorescence of an indicator in the cells.

For data set [2], the system named is Platelet. In words: Inhibition of SFLLR-induced aggregation in human platelets. It counts as functional.
A short description of data set [3]: Metabolic stability in human liver microsomes assessed as parent compound remaining after 60 mins. Conditions: read-out: Stability. It counts as ADME, Microsome. For orientation: Liver microsomes are a subcellular fraction often used to study metabolism.
Data set [4] can be described thus: Metabolic stability in rat liver microsomes assessed as parent compound remaining after 60 mins. Type of data set: ADME, Microsome. Conditions: read-out: Stability.
Data set [5] deals with Rattus norvegicus. As to the kind of experiment: Antithrombotic activity in rat arterio-venous shunt model of thrombosis assessed as increase in occlusion time at 1.25 mg/kg, iv. It counts as functional.
For data set [6], the target named is T1, Proteinase-activated receptor 1 (Homo sapiens). In words: Antagonist activity at PAR1 expressed in CHO cells assessed as inhibition of SFLLR-induced intracellular calcium release. It counts as functional, cell-based.

In the case of `CCOC(c1ccc(Cl)cc1)C(SC(C)(C)C)n1ccnc1C` (stereo not drawn), in data set [1], the inhibition came out at 63%.
In the case of `CCOC(c1ccc(Cl)cc1)C(SC(C)(C)C)n1cnc(C)c1` (stereo not drawn), the negative-log Kb (pKb) in data set [2] was 5.36. In addition, the inhibition in data set [1] is 92%.
In turn, `CCOC(c1ccc(Cl)cc1Cl)C(OC(C)(C)C)n1cnc(C)c1` (stereo not drawn) returned a negative-log Kb (pKb) in data set [2] of 5.32. The remaining at 1 h came to 57% in data set [3] and 3% in data set [4]. The inhibition in data set [1] came out at 98%. In addition, in data set [5], the Activity worked out at 0%.
Regarding `CCCCCSC(C(OCC)c1ccc(Cl)cc1)n1ccnc1` (stereo not drawn), the inhibition in data set [1] was 19%.
Same read-out and setting: then `CCOC(c1ccc(C(=O)OC)cc1)C(SC(C)(C)C)n1ccnc1` (stereo not drawn), with 37%; and `CCOC(c1ccc(Cl)cc1)C(SC(C)(C)C)n1cnc(C(F)(F)F)c1` (stereo not drawn), with 20%.
Regarding `CCCOC(c1ccc(Cl)cc1Cl)C(SC(C)(C)C)n1cnc(C)c1` (stereo not drawn), in data set [2], the pKb is on record as 5.95. The figures for the remaining at 1 h in data set [3] and in data set [4] were 28% and 2%, respectively. In addition, the inhibition in data set [1] was 88%. Further, in data set [5], the Activity worked out at 7%.
For `CCOC(c1ccc(Cl)cc1)C(SC(C)(C)C)n1cccn1` (stereo not drawn), in data set [1], the inhibition was found to be 0%.
`CCOC(c1ccc(C(F)(F)F)cc1)C(OC(C)(C)C)n1cnc(C)c1` (stereo not drawn) had a pKb in data set [2] of 5.2. For the same compound, in data set [1], the inhibition worked out at 98%.
Turning to `CCOC(c1ccc(Cl)cc1)C(SC(C)(C)C)n1cnnc1` (stereo not drawn), the inhibition in data set [1] turned out to be 34%.
The same measure, in the same setting: then `CCOC(c1ccc(Cl)cc1)C(SC(C)C)n1ccnc1` (stereo not drawn), with 40%.
Turning to `CCOC(c1ccc(Cl)cc1Cl)C(SC(C)(C)C)n1cnc(C)c1` (stereo not drawn), the pKb in data set [2] stood at 5.84. Besides, in data set [1], the inhibition is 93%.
The corresponding values for `CCOC(c1ccc(Cl)cc1)C(SC(C)(C)C)n1ccnc1` (stereo not drawn) are 5.05 and 99%.
Regarding `CCCCOC(c1ccc(Cl)cc1)C(SC(C)(C)C)n1ccnc1` (stereo not drawn), in data set [1], the inhibition turned out to be 33%.
On to `CCOC(c1ccc(Br)cc1)C(SC(C)(C)C)n1cnc(C)c1` (stereo not drawn), for which, in data set [2], the pKb came out at 5.73. In addition, the inhibition in data set [1] is 100%.
In turn, `CCOC(c1ccc(Cl)cc1)C(OC(C)(C)C)n1ccnc1` (stereo not drawn) came in with a pKb in data set [2] of 4.54. The remaining at 1 h in data set [3] came to 74%; in data set [4], 25%. In addition, the inhibition in data set [1] was determined as 85%. Moreover, the Activity in data set [5] came out at 0%.
In the case of `CCCOC(c1ccccc1Cl)C(SC(C)(C)C)n1cnc(C)c1` (stereo not drawn), in data set [2], the pKb is reported as 5.14. Moreover, the inhibition in data set [1] is 97%.
For `CCOC(c1ccccc1)C(SC(C)(C)C)n1ccnc1` (stereo not drawn) the same measures were 4.46 and 92%.
`CC(C)(C)SC(C(O)c1ccc(Cl)cc1)n1ccnc1` (stereo not drawn): the inhibition in data set [1] was 11%.
As to `CCOC(c1ccc(Cl)cc1)C(n1ccnc1)[S+]([O-])C(C)(C)C` (stereo not drawn), the remaining at 1 h in data set [3] came out at 59%; in data set [4], 39%. The inhibition in data set [1] came out at 15%.
Consider `CCOC(c1ccc(Cl)cc1)C(n1ccnc1)S(=O)(=O)C(C)(C)C` (stereo not drawn), for which the figures for the remaining at 1 h in data set [3] and in data set [4] were 35% and 47%, respectively. Besides, in data set [1], the inhibition was found to be 13%.
`CCOC(c1cccc(Cl)c1)C(SC(C)(C)C)n1cnc(C)c1` (stereo not drawn) displayed a pKb in data set [2] of 4.96. The inhibition in data set [1] is 100%.
Turning to `CCCOC(c1ccc(Cl)c(Cl)c1)C(OC(C)(C)C)n1ccnc1` (stereo not drawn), the pKb in data set [2] amounted to 5.04. Further, in data set [1], the inhibition came to 93%.
On to `CCOC(c1ccc(Cl)cc1)C(SC(C)(C)C)n1cncc1Cl` (stereo not drawn), for which the inhibition in data set [1] was 59%.
Still for that read-out and setting: then `CCOC(c1ccccc1[N+](=O)[O-])C(SC(C)(C)C)n1ccnc1` (stereo not drawn), with 33%.
In the case of `CCCCSC(C(OCC)c1ccc(Cl)cc1)n1ccnc1` (stereo not drawn), the pKb in data set [2] is given as 4.58. Besides, in data set [1], the inhibition stood at 76%.
Take `CC(C)(C)SC(C(OCc1ccccc1)c1ccc(Cl)cc1)n1ccnc1` (stereo not drawn): in data set [1], the inhibition was 23%.
As for `CCOC(c1ccc(Cl)cc1)C(CC(C)(C)C)n1ccnc1` (stereo not drawn), the pKb in data set [2] was determined as 4.12. In addition, the values for the remaining at 1 h in data set [3] and in data set [4] were 57% and 3%, respectively. For the same compound, the inhibition in data set [1] turned out to be 74%.
As for `CCOC(c1ccc(Br)cc1)C(SC(C)(C)C)n1ccnc1` (stereo not drawn), the pKb in data set [2] stood at 5.06. In addition, in data set [1], the inhibition stood at 100%.
The compound `COC(c1ccc(Cl)cc1)C(SC(C)(C)C)n1cnc(C)c1` (stereo not drawn) displayed a pKb in data set [2] of 4.42. In data set [1], the inhibition turned out to be 96%.
The corresponding values for `CCOC(c1ccc2sccc2c1)C(SC(C)(C)C)n1ccnc1` (stereo not drawn) are 5.2 and 98%.
In data set [2], `CCOC(c1ccc2c(c1)OCCO2)C(SC(C)(C)C)n1ccnc1` (stereo not drawn) showed a pKb of 4.79. For the same compound, in data set [1], the inhibition came to 88%.
For `CCOC(c1ccc(Cl)cc1)C(SC(C)(C)C)n1cnc(Cl)c1` (stereo not drawn) the same measures were 4.6 and 96%.
For `CCOC(c1ccc(Cl)cc1)C(SC(C)(C)C)n1cncn1` (stereo not drawn) the same measures were 4.64 and 99%.
`CCOC(c1ccc(Cl)cc1)C(SC(C)(C)C)n1cnc(C)c1C` (stereo not drawn): in data set [1], the inhibition came out at 64%.
With `CCOC(c1cccc(OC)c1)C(SC(C)(C)C)n1ccnc1` (stereo not drawn), the pKb in data set [2] is 0. Also, the inhibition in data set [1] was 76%.
In the case of `CCCOC(c1ccc(Cl)cc1)C(SC(C)(C)C)n1cnc(C)c1` (stereo not drawn), the pKb in data set [2] is 5.71; in data set [6] it was 5.51. Besides, the results for the remaining at 1 h in data set [3] and in data set [4] were 28% and 0%, respectively. Also, the inhibition in data set [1] was 99%. Moreover, in data set [5], the Activity is reported as 45%.
Take `CCCOC(c1ccc(F)cc1)C(OC(C)(C)C)n1ccnc1` (stereo not drawn): the inhibition in data set [1] stood at 18%.
In turn, `CCCOC(c1ccc(Cl)cc1)C(SC(C)(C)C)n1ccnc1` (stereo not drawn) registered a pKb in data set [2] of 5.01. Also, in data set [1], the inhibition turned out to be 96%.
Regarding `CCCOC(c1ccc(Br)cc1)C(SC(C)(C)C)n1cnc(C)c1` (stereo not drawn), the pKb in data set [2] stood at 5.99. For the same compound, the remaining at 1 h in data set [3] was found to be 23%; in data set [4] it was 0%. Also, the inhibition in data set [1] was 76%. In addition, the Activity in data set [5] turned out to be 0%.
Turning to `CCOC(c1ccc(C(F)(F)F)cc1)C(SC(C)(C)C)n1ccnc1` (stereo not drawn), in data set [2], the pKb was determined as 5.38. Also, the inhibition in data set [1] is 100%.
`CCOC(c1ccc(Cl)cc1)C(SC1CCCCC1)n1ccnc1` (stereo not drawn): the inhibition in data set [1] stood at 3%.
Turning to `COC(c1ccc(Cl)cc1)C(SC(C)(C)C)n1ccnc1` (stereo not drawn), in data set [2], the pKb turned out to be 5.24. Also, in data set [1], the inhibition came out at 95%.
`CCOC(c1ccccc1Cl)C(SC(C)(C)C)n1cnc(C)c1` (stereo not drawn) showed a pKb in data set [2] of 5.21. Besides, the inhibition in data set [1] was 100%.
Take `CCCOC(c1ccc(Cl)c(Cl)c1)C(OC(C)(C)C)n1cnc(C)c1` (stereo not drawn): in data set [2], the pKb was determined as 5.73. In addition, the remaining at 1 h was 23% in data set [3] and 3% in data set [4]. For the same compound, the inhibition in data set [1] turned out to be 81%. Also, the Activity in data set [5] amounted to 43%.

The record behind these values is ChEMBL document CHEMBL1159068, “Discovery and SAR of small molecule PAR1 antagonists” (Bioorg Med Chem Lett, 2010).
